Measured values reported in patent US5114851A, “Light activated acyl-enzymes” (Duke University, priority 1989, dated 1992).
Structures can show the parent of a compound that is named as a salt. Each block holds one molecule with its values, some of them ahead of it.

Tests used:
thrombin = experiment: Acylation (inactivation) of thrombin monitored by chromogenic assay; assay type: biochemical; conditions: 1- to 5-fold excess of compound; thrombin 1.5 μM; pH 7.4 Tris buffer
Source text: The reaction of 4-Amidinophenyl-(E)-2-hydroxy-4-diethylamino-α-methylcinnamate hydrocholoride (Compound F) with thrombin to form an acyl-thrombin (hereinafter "DEA acyl-thrombin") was monitored by chromogenic assay. See A. Turner, et al., 110 J.Am.Chem.Soc. 244 (1988); B. Blomback, Theoretical Considerations of Substrate Structures Governing Enzyme Specificity, 3 (M. Scully and V. Kakkar eds 1979)(New York: Churchill Livingston). A 1- to 5-fold excess of 4-Amidinophenyl-(E)-2-hydroxy-4-diethylamino-α-methylcinnamate with thrombin (1.5 μM) in pH 7.4 Tris buffer led to complete loss of thrombin activity in less than 1 hour.

[1] = Photolysis of model compounds and cyclization of the cis photoisomer to the coumarin (conventional spectroscopy or flash photolysis); assay type: physicochemical
Source text: Preliminary to our studies of the enzyme system, we studied the photochemistry of the model compounds Ethyl-(E)-2-methoxy-4-diethylamino-α-methylcinnamate and Ethyl-(E)-2-hydroxy-4-diethylamino-α-methylcinnamate (hereinafter "DEA acyl", as this compound models DEA acyl-thrombin with ethyl in place of thrombin). Photolysis of Ethyl-(E)-2-methoxy-4-diethylamino-α-methylcinnamate with 366 nm light results in a rapid decrease in absorbance as the cis photoisomer is formed (In all photolyses reported here, except for the laser flash studies, the source lamp was a mercury 500 W high pressure lamp. The 366 nm emission was isolated by a Bausch and Lomb grating monochromator). At the photostationary state, the cis photoisomer is 60% of the mixture, and the ε of the cis compound is <40% of that of the trans at 360 nm. Photolysis for 5 minutes of DEA acyl in 98% ethanol/2% pH 7.4 Tris buffer gives a sharp decrease in the absorbance at 360 nm, followed by a slow increase in absorbance at 380 nm due to the dark formation of the 3-methyl-7-N,N-diethylamino-coumarin (hereafter "the coumarin"). The increase in the absorbance due to the coumarin is first order with kc =7.17·10^-4 s^-1. The presence of the cis isomer has been confirmed by NMR after photolysis as <0° C. […] Photolysis of trans DEA acyl in Tris buffer alone gives a clean conversion to coumarin with an isosbestic point observed at 370 nm. Thus, in Tris and using conventional spectroscopy, there is no evidence for the formation of cis DEA acyl in the conversion of the trans isomer to coumarin, but flash photolysis experiments (vide infra) indicate that the cis intermediate is formed, but is very reactive in this solvent.
No evidence for a cis acyl enzyme photoisomer is seen by conventional spectroscopy. However, flash photolysis (10 nsec) of DEA acyl or DEA acyl-thrombin in Tris buffer with 355 nm light from a Nd/Yad laser does give evidence for the cis photoisomer. For both DEA acyl and DEA acyl-thrombin, the flash results in an immediate decrease in absorbance at 380 nm, followed by a first order increase of absorbance as the coumarin forms from the cis intermediate.

SMILES: CCN(CC)c1ccc(/C=C(\C)C(=O)Oc2ccc(C(=N)N)cc2)c(O)c1 [Compound F, 2-Propenoic acid, 3-(2-hydroxy-4-diethylaminophenyl)-2-methyl-, 4-(aminoiminomethyl)phenyl ester,(E)-, monohydrochloride salt]
loss of thrombin activity (thrombin): complete loss
time to complete loss of thrombin activity (thrombin): less than 1 hour

ε of the cis compound relative to that of the trans ([1]; at 360 nm): < 40%
SMILES: CCOC(=O)/C(C)=C/c1ccc(N(CC)CC)cc1OC [Ethyl-(E)-2-methoxy-4-diethylamino-α-methylcinnamate]

Half-Life of cyclization to give the coumarin ([1]; 50/50 ethanol/Tris pH 7.4, 23° C.): 0.118 min
Half-Life of cyclization to give the coumarin ([1]; 98/2 ethanol/Tris pH 7.4, 23° C.): 16.1 min
SMILES: CCOC(=O)/C(C)=C\c1ccc(N(CC)CC)cc1O [cis DEA acyl]
First Order Rate Constant (cyclization of cis photoisomer to the coumarin) ([1]; 2/98 ethanol/Tris pH 7.4, 23° C., flash photolysis): 1.7 ± 0.5 s⁻¹
increase of the rate of cyclization with solvent ([1]; 50/50 ethanol/Tris buffer versus 98% ethanol/2% Tris): two orders of magnitude
